One series concerns the target T1, hKv1.2 channel (Homo sapiens, UniProt P16389).
T1 construct: expressed in transfected cells; host or cells: HEK293T
The series can be described thus: Whole-cell patch clamp, hKv1.2 channel overexpressed in HEK293T cells. The settings on record: mean ± S.E., n ≥ 3, SEM. In kind it is cell-based. As to the method: (§1) To investigate the electrophysiological activities of BmK86-P1, the whole-cell patch clamp technique was applied to test the effects of BmK86-P1 on multiple potassium channels. The hKv1.1, hKv1.2, hKv1.3, hKv1.6, hKv3.2, mKv4.1, rKv4.2, rKv4.3 and hERG channels were overexpressed in HEK293T cells, then the inhibitory effects of BmK86-P1 at 1 μM on these potassium channels were measured. […] To further investigate the affinity of BmK86-P1 inhibiting the hKv1.2 channel, a dose-dependent study was performed by examining the inhibitory effects of different concentrations of BmK86-P1.
(§2) All potassium channel expression vectors were given by others or constructed by ourselves. HEK293T cells were cultured in Dulbecco’s modified Eagle medium (Gibco, Pittsburgh, PA, USA) with 10% fetal bovine serum and penicillin/streptomycin (100 units/mL) in a 5% CO2 incubator at 37 °C. Potassium channel expression vectors and pEGFP-N1 were co-transfected into HEK293T cells using TurboFect in vitro Transfection Reagent (Thermo Scientific, Waltham, MA, USA) according to the manufacturer’s instructions. The potassium currents were recorded after transfection for 1 to 3 days.
The channel currents were measured and recorded by whole-cell patch clamp technology according to previously published references. The internal patch pipette solution and the bath solution were prepared as previously described. All the test peptides were dissolved into bath solution supplemented with 0.01% BSA. An MPS-2 multichannel microperfusion system (INBIO Inc., Wuhan, China) was applied to change the external recording bath solution. The infusion time of the peptides should not exceed 20 min to maintain good cell conditions during electrophysiological recordings. The channel currents were recorded at room temperature (~25 °C) using an EPC 10 patch clamp amplifier. The results were presented as the means ± S.E., and in every sample at least three cells (n ≥ 3) were examined.
(§3) The ClampFit (Molecular Devices, Sunnyvale, CA, USA) and SigmaPlot software ([…], Chicago, IL, USA) were used to analyze the recorded data. […]

The target in the next series is T2, hKv1.3 channel (Homo sapiens, UniProt P22001).
T2 construct: expressed in transfected cells; host or cells: HEK293T
The series can be described thus: Whole-cell patch clamp, hKv1.3 channel overexpressed in HEK293T cells. The format is cell-based. The following applies: 1 μM peptide, room temperature (~25 °C), mean ± S.E., n ≥ 3, SEM. As to the method:
as §1
(§4) All potassium channel expression vectors were given by others or constructed by ourselves. HEK293T cells were cultured in Dulbecco’s modified Eagle medium (Gibco, Pittsburgh, PA, USA) with 10% fetal bovine serum and penicillin/streptomycin (100 units/mL) in a 5% CO2 incubator at 37 °C. […] The potassium currents were recorded after transfection for 1 to 3 days.
(§5) The channel currents were measured and recorded by whole-cell patch clamp technology according to previously published references. […] The channel currents were recorded at room temperature (~25 °C) using an EPC 10 patch clamp amplifier. […]
as §3

The target in a further series is T3, hKv1.6 channel (Homo sapiens, UniProt P17658).
T3 construct: expressed in transfected cells; host or cells: HEK293T
The series can be described thus: Whole-cell patch clamp, hKv1.6 channel overexpressed in HEK293T cells. In kind it is cell-based. The settings on record: 1 μM peptide, mean ± S.E., n ≥ 3, SEM. The procedure: as §1, §4, §5, §3

The target of the next series is T4, rKv4.2 channel (Rattus norvegicus, UniProt Q63881).
T4 construct: expressed in transfected cells; host or cells: HEK293T
T4 sequence (Q63881 1-630): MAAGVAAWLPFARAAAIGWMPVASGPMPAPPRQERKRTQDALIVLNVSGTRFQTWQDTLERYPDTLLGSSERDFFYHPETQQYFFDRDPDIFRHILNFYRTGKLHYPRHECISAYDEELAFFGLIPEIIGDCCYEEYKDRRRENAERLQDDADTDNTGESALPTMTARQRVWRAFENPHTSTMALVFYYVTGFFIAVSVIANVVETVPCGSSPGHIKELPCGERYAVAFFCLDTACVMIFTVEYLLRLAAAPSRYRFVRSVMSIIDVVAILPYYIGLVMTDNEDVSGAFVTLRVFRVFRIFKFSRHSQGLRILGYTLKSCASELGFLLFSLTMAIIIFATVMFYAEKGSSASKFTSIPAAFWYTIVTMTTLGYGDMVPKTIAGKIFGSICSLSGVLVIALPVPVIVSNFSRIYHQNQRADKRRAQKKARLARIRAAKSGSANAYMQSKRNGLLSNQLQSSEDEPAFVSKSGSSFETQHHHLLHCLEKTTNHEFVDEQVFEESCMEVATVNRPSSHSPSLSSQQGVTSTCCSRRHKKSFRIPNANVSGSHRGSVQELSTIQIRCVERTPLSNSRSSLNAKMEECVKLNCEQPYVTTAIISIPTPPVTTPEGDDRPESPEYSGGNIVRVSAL
The series can be described thus: Whole-cell patch clamp, rKv4.2 channel overexpressed in HEK293T cells. In kind it is cell-based. The settings on record: 1 μM peptide, mean ± S.E., n ≥ 3, SEM. As to the method:
as §1, §4, §5, §3

For the next series, the target named is T5, hKv1.2-R354A (Homo sapiens, UniProt P16389, R354A).
T5 construct: expressed in transfected cells; host or cells: HEK293T
Briefly: Whole-cell patch clamp, hKv1.2 channel mutant R354A. In kind it is cell-based. The settings on record: 100 nM peptide, HEK293T, mean ± S.E., n ≥ 3, SEM. As to the method: (§6) To determine the functional sites of the hKv1.2 channel responsible for the selectivity of BmK86-P1, six hKv1.2 mutants were obtained based on sequence differences between the pore regions of the hKv1.2 and hKv1.1 channels (Figure 4A). Then, the activities of 100 nM BmK86-P1 on these six mutant channels were tested. […] The other three mutant channels (hKv1.2-D352E, hKv1.2-R354A and hKv1.2-P359S) still kept similar sensitivities toward BmK86-P1 compared with the wild-type hKv1.2 channel (Figure 4H,I,K,N).
as §2, §5

In the next series the target is T6, hKv1.2-P359S (Homo sapiens, UniProt P16389, P359S).
T6 construct: expressed in transfected cells; host or cells: HEK293T
The series can be described thus: Whole-cell patch clamp, hKv1.2 channel mutant P359S. In kind it is cell-based. The settings on record: 100 nM peptide, HEK293T, mean ± S.E., n ≥ 3, SEM. The procedure:
as §6, §2, §5

Series [1] can be described thus: Thermal stability of secondary structure by CD spectroscopy. The format is physicochemical. The following applies: 0.2 mg/mL in ddH2O, 20, 35, 50, 65, 80 and 95 °C, then returned to 20 °C, average of three scans. As to the method: In order to characterize the thermal stability of BmK86-P1, we analyzed the secondary structure of BmK86-P1 peptide in aqueous solutions at different temperatures (20 °C, 35 °C, 50 °C, 65 °C, 80 °C and 95 °C) by CD spectroscopy.
The secondary structures of BmK86-P1 and its mutants in water were measured by circular dichroism (CD) spectroscopy as previously described using a ChirascanTM V^100 spectrometer (Applied Photophysics, Surrey, UK). All the peptides were dissolved into ddH2O at a concentration of 0.2 mg/mL. At a range of wavelengths from 180 to 260 nm, the absorption spectra of peptides were recorded at room temperature. The speed scanning was 1 nm/s with a response time of 1 s. […] (deg·cm^2·dmol^−1).

Consider one compound from paper PMC8472965, “BmK86-P1, a New Degradation Peptide with Desirable Thermostability and Kv1.2 Channel-Specific Activity from Traditional Chinese Scorpion Medicinal Material” (Toxins, 2021).

The structures appear in SMILES notation. Positions of bridges follow the written chain, without caps; N, C: chain ends. Residues, ends and D or L forms follow the SMILES beside them.

T1 sequence (P16389 whole entry): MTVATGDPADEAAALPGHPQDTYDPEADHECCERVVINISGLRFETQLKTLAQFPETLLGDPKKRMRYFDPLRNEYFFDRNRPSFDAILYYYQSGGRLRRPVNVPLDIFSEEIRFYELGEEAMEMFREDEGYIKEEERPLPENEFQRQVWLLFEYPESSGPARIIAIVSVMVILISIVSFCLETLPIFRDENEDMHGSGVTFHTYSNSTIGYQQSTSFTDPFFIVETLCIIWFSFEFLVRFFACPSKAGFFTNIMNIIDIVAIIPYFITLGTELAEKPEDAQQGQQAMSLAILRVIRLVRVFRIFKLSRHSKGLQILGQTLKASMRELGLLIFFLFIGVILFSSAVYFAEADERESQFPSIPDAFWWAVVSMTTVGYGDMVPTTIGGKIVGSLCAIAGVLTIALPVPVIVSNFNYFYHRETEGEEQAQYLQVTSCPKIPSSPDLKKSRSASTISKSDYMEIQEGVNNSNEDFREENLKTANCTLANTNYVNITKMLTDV
T3 sequence (P17658 whole entry): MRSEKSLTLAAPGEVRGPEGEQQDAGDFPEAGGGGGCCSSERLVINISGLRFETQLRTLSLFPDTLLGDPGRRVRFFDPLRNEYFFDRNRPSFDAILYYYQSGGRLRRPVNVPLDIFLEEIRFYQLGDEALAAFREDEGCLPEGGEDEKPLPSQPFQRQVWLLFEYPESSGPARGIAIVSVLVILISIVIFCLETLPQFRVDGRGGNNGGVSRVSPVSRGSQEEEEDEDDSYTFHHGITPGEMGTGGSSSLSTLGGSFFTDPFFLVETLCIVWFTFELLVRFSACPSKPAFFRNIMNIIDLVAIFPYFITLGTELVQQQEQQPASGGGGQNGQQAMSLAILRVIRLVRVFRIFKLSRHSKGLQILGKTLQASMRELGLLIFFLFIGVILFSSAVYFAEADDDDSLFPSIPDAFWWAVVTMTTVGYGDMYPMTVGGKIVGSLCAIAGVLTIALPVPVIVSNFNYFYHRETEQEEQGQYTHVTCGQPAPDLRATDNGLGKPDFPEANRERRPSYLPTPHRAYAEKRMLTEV
T6 sequence (P16389 whole entry P359S): as the sequence (P16389 whole entry) above, with P359S counted along it
T2 sequence (P22001 whole entry): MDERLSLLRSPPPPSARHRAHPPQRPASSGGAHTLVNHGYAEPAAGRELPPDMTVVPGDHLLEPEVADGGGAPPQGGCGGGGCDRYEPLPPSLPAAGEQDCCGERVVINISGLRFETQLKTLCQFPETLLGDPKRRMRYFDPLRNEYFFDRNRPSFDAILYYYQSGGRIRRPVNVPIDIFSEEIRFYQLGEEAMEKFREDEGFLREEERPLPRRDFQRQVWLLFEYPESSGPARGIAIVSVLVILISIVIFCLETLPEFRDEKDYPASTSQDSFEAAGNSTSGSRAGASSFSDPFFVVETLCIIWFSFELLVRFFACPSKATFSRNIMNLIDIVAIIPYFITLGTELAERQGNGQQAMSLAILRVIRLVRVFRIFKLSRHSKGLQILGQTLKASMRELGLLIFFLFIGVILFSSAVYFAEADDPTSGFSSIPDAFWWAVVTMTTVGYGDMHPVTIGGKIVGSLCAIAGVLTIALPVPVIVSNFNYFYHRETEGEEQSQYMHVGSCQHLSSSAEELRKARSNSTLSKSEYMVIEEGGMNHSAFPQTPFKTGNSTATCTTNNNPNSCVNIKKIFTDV
T5 sequence (P16389 whole entry R354A): as the sequence (P16389 whole entry) above, with R354A counted along it

For `CC[C@H](C)[C@@H]1NC(=O)[C@@H]2CSSC[C@H](NC(=O)[C@H](C)N)C(=O)N[C@@H](CO)C(=O)N[C@@H](CCCCN)C(=O)N3CCC[C@H]3C(=O)N[C@H]3CSSC[C@H](NC(=O)[C@H](CCCNC(=N)N)NC(=O)CNC(=O)[C@H](CC(N)=O)NC1=O)C(=O)N[C@@H](Cc1c[nH]cn1)C(=O)N[C@H](C(=O)N[C@@H](Cc1ccc(O)cc1)C(=O)N[C@@H](Cc1ccc(O)cc1)C(=O)O)CSSC[C@H](NC(=O)[C@H](Cc1ccc(O)cc1)NC(=O)[C@H](CCCCN)NC(=O)[C@H](CCCNC(=N)N)NC3=O)C(=O)N[C@@H]([C@@H](C)CC)C(=O)N[C@@H](CC(=O)O)C(=O)N[C@@H](CCCCN)C(=O)NCC(=O)N[C@@H](C)C(=O)N[C@@H](CCCNC(=N)N)C(=O)N[C@@H](CC(N)=O)C(=O)NCC(=O)N[C@@H](CCCCN)C(=O)N2` [BmK86-P1] (H-ACSKPCRKYCIDKGARNGKCINGRCHCYY-OH; disulfide 2-20, 6-25, 10-27 (inferred); N-terminus and C-terminus assumed), the “inhibition of hKv1.2 channel currents” value turned out to be 74.1 ± 3.2% against hKv1.2 channel (100 nM peptide) and 88.6 ± 2.2% against hKv1.2 channel (1 μM peptide, room temperature (~25 °C)). Also, on hKv1.2 channel (dose-response curve fitted with Hill equation, read-out: IC50, inhibition of the hKv1.2 channel), the IC50 was found to be 0.0285 ± 0.0063 µM. Further, on hKv1.3 channel, the “inhibition of hKv1.3 channel currents” value is 52.1 ± 3.1%. For the same compound, the “inhibition of hKv1.6 channel currents” value against hKv1.6 channel was 11.0 ± 1.2%. Besides, the “inhibition of rKv4.2 channel currents” value against rKv4.2 channel came to 11.0 ± 1.8%. Besides, the “inhibition of hKv1.2-R354A channel currents” value at hKv1.2-R354A worked out at 73.3 ± 1.3%. Also, the “inhibition of hKv1.2-P359S channel currents” value against hKv1.2-P359S came out at 72.4 ± 5.5%. For the same compound, the “thermal stability of secondary structure” value in series [1] is “thermally stable”.
